Data from patent publication US10568890B2 (Xi'An Libang Pharmaceutical Co., Ltd, priority 2012, dated 2020).
≈ marks a conversion by molar mass, not a printed value.

Experiments:
[1] = Test of miscibility of formulae in vitro; format: physicochemical
Experimental: Ethyl lactate was mixed with ethyl oleate, glycerol triacetate, benzyl benzoate, castor oil, sesame oil, soybean oil, corn oil and olive oil respectively for miscibility, and then the conditions of miscibility were observed. Specifically, 1) adding 0.50 ml of ethyl lactate for each one into eight vials of 7 ml each, and then adding 0.50 ml of ethyl oleate, glycerol triacetate, benzyl benzoate, castor oil, sesame oil, soybean oil, corn oil and olive oil thereto respectively; swirl them for 5 min to be mixed uniformly, followed by standing for 10 min, and then observing and recording the conditions of miscibility of various solvents; 2) adding 0.30 ml of sesame oil, soybean oil, corn oil, olive oil, ethyl oleate, glycerol triacetate and benzyl benzoate respectively into seven vials of 7 ml each; and then adding 0.30 ml of castor oil and 0.30 ml of ethyl lactate thereto; swirl them for 5 min to be mixed uniformly, followed by standing for 10 min; and then observing and recording the conditions of miscibility of various solvents.

[2] = tested on: advanced breast cancer patients (postmenopausal); conditions: after treatment failure of first-line non-steroid drugs; cited from earlier work
[3] = Solubility test of fulvestrant in some solvents; format: physicochemical; conditions: 25° C.
Experimental: If it was dissolved completely, the addition of the drug was resumed to reach a saturated state. Nitrogen was introduced, and the vials were kept airtight and free of light for 1-2 days to reach a dissolution-precipitation balance.

| Compound | miscibility of ethyl lactate ([1]; with benzyl benzoate, 0.50 ml each) | miscibility of ethyl lactate ([1]; with castor oil, 0.50 ml each) | miscibility of ethyl lactate ([1]; with corn oil, 0.50 ml each) | miscibility of ethyl lactate ([1]; with ethyl oleate, 0.50 ml each) | miscibility of ethyl lactate ([1]; with glycerol triacetate, 0.50 ml each) | miscibility of ethyl lactate ([1]; with mixed oil 1 (1:1 ethyl oleate and castor oil)) | miscibility of ethyl lactate ([1]; with mixed oil 2 (1:1 benzyl benzoate and castor oil)) | miscibility of ethyl lactate ([1]; with mixed oil 3 (1:1 glycerol triacetate and castor oil)) | miscibility of ethyl lactate ([1]; with mixed oil 4 (1:1 sesame oil and castor oil)) | miscibility of ethyl lactate ([1]; with mixed oil 5 (1:1 corn oil and castor oil)) | miscibility of ethyl lactate ([1]; with mixed oil 6 (1:1 olive oil and castor oil)) | miscibility of ethyl lactate ([1]; with mixed oil 7 (1:1 soybean oil and castor oil)) | miscibility of ethyl lactate ([1]; with olive oil, 0.50 ml each) | miscibility of ethyl lactate ([1]; with sesame oil, 0.50 ml each) | miscibility of ethyl lactate ([1]; with soybean oil, 0.50 ml each) | overall response rate [2] | Solubility ([3]; in benzyl propionate) | Solubility ([3]; in isopentyl acetate) |
| --- | --- | --- | --- | --- | --- | --- | --- | --- | --- | --- | --- | --- | --- | --- | --- | --- | --- | --- |
| CCOC(=O)C(C)O (stereo not drawn) [ethyl lactate, ethyl α-hydroxylpropionate] | miscible | miscible | immiscible | miscible | miscible | miscible | miscible | miscible | miscible | miscible | miscible | miscible | immiscible | immiscible | immiscible | – | – | – |
| C=C1C[C@@H]2[C@H](CC[C@]3(C)C(=O)CC[C@@H]23)[C@@]2(C)C=CC(=O)C=C12 [exemestane] | – | – | – | – | – | – | – | – | – | – | – | – | – | – | – | 28% | – | – |
| C[C@]12CC[C@@H]3c4ccc(O)cc4C[C@@H](CCCCCCCCC[S+]([O-])CCCC(F)(F)C(F)(F)F)[C@H]3[C@@H]1CC[C@@H]2O (stereo partly shown) [fulvestrant] | – | – | – | – | – | – | – | – | – | – | – | – | – | – | – | 37% | 4.34 mg/mL (≈ 7.15 mM) | 50.98 mg/mL (≈ 84 mM) |
